Reference: the NIST ThermoML archive (doi:10.1021/je500110d)
Numbers after ± are expanded uncertainties.

Columns and labels:
[1] = Molar enthalpy of transition or fusion; details: Crystal; DSC
[2] = 298.15 K, Liquid, Gas chromatography
[3] = 298.15 K, Metastable liquid, Gas chromatography

CCCCOC(=O)c1ccccc1C(=O)OCc1ccccc1 [benzyl butyl 1,2-benzenedioate]
vapor or sublimation pressure [2]: 2e-07 ± 1e-07 kPa

CCCCC(CC)COC(=O)c1ccc(C(=O)OCC(CC)CCCC)cc1 (configuration not stated) [bis(2-ethylhexyl) terephthalate]
vapor or sublimation pressure [2]: 5.4e-09 ± 1e-08 kPa

CCCCOC(=O)c1ccccc1C(=O)OCCCC [dibutyl phthalate]
vapor or sublimation pressure (333.2 K, Liquid, Transpiration method): 0.000224 ± 9e-06 kPa
vapor or sublimation pressure (338.4 K, Liquid, Transpiration method): 0.000365 ± 1.4e-05 kPa
vapor or sublimation pressure (343.4 K, Liquid, Transpiration method): 0.000586 ± 2.3e-05 kPa
vapor or sublimation pressure (348 K, Liquid, Transpiration method): 0.000838 ± 3.3e-05 kPa
vapor or sublimation pressure (353.6 K, Liquid, Transpiration method): 0.0014 ± 5e-05 kPa
vapor or sublimation pressure (358.7 K, Liquid, Transpiration method): 0.00215 ± 8e-05 kPa
vapor or sublimation pressure (363.7 K, Liquid, Transpiration method): 0.00316 ± 0.00012 kPa
vapor or sublimation pressure (368.7 K, Liquid, Transpiration method): 0.00459 ± 0.00018 kPa
vapor or sublimation pressure (373.6 K, Liquid, Transpiration method): 0.00675 ± 0.00026 kPa
vapor or sublimation pressure (378.5 K, Liquid, Transpiration method): 0.00948 ± 0.00037 kPa

O=C(OC1CCCCC1)c1ccccc1C(=O)OC1CCCCC1 [dicyclohexyl phthalate]
vapor or sublimation pressure [3]: 8e-08 ± 2e-08 kPa
Triple point temperature (Crystal, DTA): 336.5 ± 0.7 K
Molar enthalpy of transition or fusion [1]: 7.72 ± 0.693 kcal/mol

COC(=O)c1ccc(C(=O)OC)cc1 [dimethyl 1,4-benzenedicarboxylate]
vapor or sublimation pressure [3]: 2.14e-07 ± 3.1e-08 kPa

CCCCCCCCOC(=O)c1ccccc1C(=O)OCCCCCCCC [dioctyl 1,2-benzenedicarboxylate]
vapor or sublimation pressure [2]: 5.5e-09 ± 1.1e-08 kPa
